Results reported in patent US7468391B2, “Methods for treating retinoid responsive disorders using selective inhibitors of CYP26A and CYP26B” (Allergan, Inc., priority 2003, dated 2008).
Values joined by “and” are separate entries in the source; they are usually repeats but may differ in a detail not shown here. Equal entries are not always repeated. “Also recorded” adds a separate entry of the source. Where two headings read alike, the source gives them in different places.

Assays:
[1] = system: human patients; settings: Kuijpers, et al. (1998); cited from earlier work
[2] = system: hamster flank organ sebaceous gland; assay: Hamster flank organ sebaceous gland differentiation (model for acne); assay type: in vivo, male golden syrian hamsters; settings: for sebaceous gland differentiation in hamster flank organ: oral gavage, 6 days/week for 4 weeks
Procedure: Differentiation of hamster flank organ sebaceous gland is a model system for development of acne. To determine the effectiveness of selective CYP26B inhibitors for treating acne, such inhibitors were tested in this model system. To confirm that this model system can predict the effectiveness of a compound in reducing acne, 13-cis retinoic acid (acutane) was used as a positive control.
(§1) For the hamster model system, male golden syrian hamsters were fed LabDiet#5002 rodent diet and housed individually on a 14/10 hr light/dark cycle. For treatment, the animals were randomized according to body weight and they were also weighed at each treatment so that the drug doses could be adjusted accordingly. The animals were treated daily by oral gavage, 6 days/week for 4 weeks. At the end of treatments, the animals were sacrificed by carbon dioxide inhalation. The flank organs were then excised and spread on a small piece of index card which was placed in a histology cassette for fixation in 10% buffered formaldehyde. The specimen was divided into 5 equally spaced portions to make paraffin blocks and one 5-micrometer H&E sections was prepared from each block. The two sections that contained the most sebaceous glands were used to determine the average acini area of the flank organ. A video camera attached to a standard microscope with the 4× objective was used to capture the images of the sebaceous glands. Computer programs Videoshop and NIH Image 1.63 were used to quantify the acini areas. All the recognizable sebaceous glands in the two sections were analyzed and the means were derived for comparison among various treatments. In all studies, blood samples were also collected for determining the levels of serum triglyceride using a triglyceride GPO Trinder kit from Sigma Chemicals (St. Louis, Mo.).

[3] = system: hacyp26b; assay: Taqman RT-PCR of CYP26B expression in hamster flank organ sebaceous gland; assay type: in vivo
Procedure: (§2) Because CYP26 functions in cells to reduce retinoic acid receptor signaling, the effect of inhibiting CYP26 to increase retinoic acid receptor signaling, and thereby reduce differentiation of hamster sebaceous gland differentiation, was examined. The expression of CYP26A and CYP26B in hamster flank organ sebaceous gland was determined using Taqman RT-PCR. Hamsters were treated as described above and sacrificed at various time points (1 day to 3 weeks). The flank organs were excised and placed under a dissecting microscope. Sebaceous glands were removed and put into liquid nitrogen immediately. RNAs were isolated from the glands using Trizol reagents (Invitrogen; San Diego, Calif.) as described by the manufacturer. The RNAs were treated with DNase to remove contaminating genomic DNAs and further purified with the DNA-free kit (Ambion; Austin, Tex.). Quantitative RT-PCR was performed on an ABI 7700 machine using Invitrogen's Platinum qRT-PCR kit with CYP26-specific primers and probes.

[4] = system: hacyp26a; assay: Taqman RT-PCR of CYP26A expression in hamster flank organ sebaceous gland; assay type: in vivo
Procedure: as §2

[5] = assay type: in vivo
Procedure: as §1
Experimental results showing the effect of various retinoid compounds on differentiation of sebaceous gland in […] flank organ were generated.

Structure (SMILES): Clc1cccc(C(c2ccc3[nH]cnc3c2)n2ccnc2)c1 (centres unmarked) [liarozole]
- effect of treatment in human patients [1]: amelioration of psoriasis

Structure (SMILES): CC1=C(/C=C/C(C)=C/C=C/C(C)=C\C(=O)O)C(C)(C)CCC1 [13-cis retinoic acid]
- sebaceous gland differentiation in hamster flank organ [2]: effective in reducing sebaceous gland differentiation; also recorded: appeared to be more effective
- hacyp26b Ct ([3]; HFO-9, 1w, listed as 13cisRA): 30.5 and 31.8
- hacyp26b Ct ([3]; HFO-9, 2w): 34.1
- hacyp26b Relative to veh ([3]; HFO-9, 2w): 0.6×
- hacyp26b Ct ([3]; HFO-9, 3w, listed as 13cisRA): 36.7 and 35.7
- hacyp26b Relative to veh ([3]; HFO-9, 3w, listed as 13cisRA): 0.1× and 0.2×
- hacyp26b Ct ([3]; HFO-9, 4d): 30.6
- hacyp26b Relative to veh ([3]; HFO-9, 4d): 13×
- CYP26B expression in hamster flank sebaceous gland ([3]; Table 2): induced
- hacyp26a Ct ([4]; HFO-9, 1w, listed as 13cisRA): 29.8 and 29.6
- hacyp26a Relative to Veh ([4]; HFO-9, 1w, listed as 13cisRA): 12.1× and 13.9×
- hacyp26a Ct ([4]; HFO-9, 2w): 30.1
- hacyp26a Relative to Veh ([4]; HFO-9, 2w): 9.8×
- hacyp26a Ct ([4]; HFO-9, 3w, listed as 13cisRA): 33 and 31.9
- hacyp26a Ct ([4]; HFO-9, 4d): 28.1
- hacyp26a Relative to Veh ([4]; HFO-9, 4d): 22.6×
- CYP26A expression in hamster flank sebaceous gland ([4]; Table 2): induced
- toxicity ([5]; hamster, in vivo): lower toxicity levels

Structure (SMILES): CCc1ccc(C2=CC(C)(C)Sc3ccc(C#Cc4ccc(C(=O)O)cc4)cc32)cc1 [AGN194310]
- effect on the 13-cis retinoic acid-induced reduction in sebaceous gland differentiation ([2]; given with 13-cis retinoic acid, FIG. 2): blocked the effect of 13-cis retinoic acid treatment on sebaceous gland differentiation

Structure (SMILES): CC1=C(/C=C/C(C)=C\C=C\C(C)=C/C(=O)O)C(C)(C)CCC1=O [4-oxo-13-cis RA]
- sebaceous gland differentiation in hamster flank organ [2]: appeared to be more effective
- toxicity ([5]; hamster flank organ study): lower toxicity levels

Structure (SMILES): C/C(=C\c1ccc(C(=O)O)cc1)c1ccc2c(c1)C(C)(C)CCC2(C)C [TTNPB]
- toxicity ([5]; hamster, in vivo): observed at effective doses
